Results as given in patent publication US8703424B2, “Predicting human developmental toxicity of pharmaceuticals using human stem-like cells and metabolomics” (Stemina Biomarker Discovery, Inc., priority 2010, dated 2014).
Read-outs that look alike come from different tables or passages of the source. One block for each compound: values may come before it.

Legend:
hESCs = experiment: Arginine / ADMA fold change ratio (integrated EICs) in dosed hESCs vs controls; settings: for Arg fold change/ADMA fold change: EIC areas, controls vs. dosed
Protocol: All tested chemicals were purchased from Sigma-Aldrich (St. Louis, Mo.). Cells were dosed with drugs at a concentration equivalent to their published serum circulating therapeutic dosages. Dosing was performed on hESCs in 6-well plates in triplicate, i.e. three wells per plate. The plates were dosed in triplicate, so there were a total of nine dosed wells. In parallel, there were nine “control” wells, in which hESCs were cultured with mTeSR1 containing no drug, and three wells containing Matrigel with mTeSR1 medium without hESCs that served as medium controls. Lastly, three wells of dosed medium controls were prepared, containing Matrigel, mTeSR1 and drug, but no hESCs (FIG. 1). These medium controls provided baseline mass spectral data. On the first day of dosage, the determined concentration of drug was dissolved in mTeSR1, and then 2.5 mL of this solution was added to each dosed well of hESCs. Each day, for four days, the medium was removed and new dosed medium was added. On the fourth day, the medium was removed and added to acetonitrile to make a 40% acetonitrile solution, as outlined in the Sample Preparation section below.
Mass spectrometry was performed using an Agilent QTOF LC/MS system consisting of a G6520AA QTOF high resolution mass spectrometer capable of exact mass MS and MS/MS. In order to facilitate separation of small molecules with a wide range of polarity and to allow increased retention of hydrophilic species, Hydrophilic Interaction Liquid Chromatography (Alpert 1990) was employed. Each sample was run for 30 minutes with the gradient shown in Table 3 at a flow rate of 0.5 mL/min, using 0.1% formic acid in water (Solvent A) and 0.1% formic acid in acetonitrile (Solvent B). Electrospray ionization was employed using a dual ESI source, with an Agilent isocratic pump continuously delivering an internal mass reference solution into the source at approx. 0.01 mL/min. The mass range of the instrument was set to 100-1700 Da. A Phenomenex Luna HILIC column with dimensions 3×100 mm 3 μm particle size was used and maintained at 30° C. 5 μl of each sample was injected. Data acquisition was performed with Agilent MassHunter using high-resolution exact mass conditions.
Valproate is known to cause neural tube defects (DiLiberti et al. 1984) while nitric oxide synthase activity is essential for neural tube closure (Nachmany et al. 2006).

[1] = system: WA09 human embryonic stem (hES) cells; experiment: PLS-DA prediction of teratogenicity from secretome of treated hES cells (Example 9); settings: DevTox pharmaceutical
From the text: These included 11 known teratogens and 11 known non-teratogens. The current model is based on the mean fold change (treatment versus its associated intra-experimental control) of 15 metabolites common among the secretome of hES cells treated with pharmaceutical agents and unknown chemical compounds.

WA09 hESCs = experiment: Random forest prediction of teratogenicity from metabolomics of spent media of dosed hESCs; format: cell-based, human; settings: for Predicted teratogenicity (random forest statistical model): blind study, model trained on TS1, 142 mass features, circulating dose
Protocol: WA09 hESCs, obtained from WiCell Research Institute (NIH National Stem Cell Bank, Madison, Wis.) were cultured in 6-well plates on Matrigel (BD Biosciences, San Jose, Calif.), in mTeSR1 medium (Stem Cell Technologies, Vancouver, BC) incubated at 37° C. under 5% CO2 in a Thermo Electron Form a Series II Water Jacket CO2 Incubator. hESCs were passaged every three or four days at a 1:3 or 1:6 seeding density for routine culture conditions. For dosing experiments, hESCs were passaged at a low density of 1:10 or 1:12 so that they would not require passaging during the […] dosing protocol. To passage hES cells, the StemPro® EZPassage™ disposable stem cell passaging tool (Invitrogen, Carlsbad, Calif.) was used to detach the cells from the wells. Detached cells were removed with a pipette and distributed to new Matrigel plates.
These medium controls provided baseline mass spectral data.
The 2.5 mL of spent media per well from Example 1 was added to 1.67 mL acetonitrile to make a 40% acetonitrile solution. The acetonitrile acts to “quench” the spent media sample, slowing or halting many metabolic processes and aiding in precipitation of cellular proteins. Samples were either stored at −80° C. for later analysis, or for immediate analysis, 250 μL of the quenched solution was mixed with 250 μL of water, to a final concentration of 20% acetonitrile, then added to a 3 kDa molecular weight cut-off filter spin column (Microcon YM-3 Centrifugal Filter, Millipore, Billerica, Mass.). Each sample was then centrifuged in an IEC CL31R Multispeed Centrifuge (Thermo Scientific, Waltham, Mass.) at 13,000×g at 4° C. for 200 minutes. Following centrifugation, the flow-through was saved then dried for several hours in a Savant High Capacity Speedvac Plus Concentrator. The concentrated sample was then dissolved in 50 μL of 0.1% formic acid prior to LC-MS analysis.
5 μl of each sample was injected.
Following LC-MS, chromatograms were inspected for reproducibility. LC-MS runs with total ion counts that vary by more than 25% were repeated to ensure that samples could be accurately compared. These runs were then used to create mass features that correspond to molecules detected across the different LC-MS runs. Mass features were extracted from the LC-MS data using MassHunter Qualitative Analysis software (Agilent Technologies). The following criteria were used as general guidelines, however some flexibility and optimization was needed. m/z values within the range of 75-1500, with a charge of +1 or −1, and a centroid height greater than 1000 were used to generate “mass features.” The mass peaks that pass these criteria were used to fit isotope and adduct (Na^+, K^+, and NH4^+) patterns corresponding to individual molecules, and to establish the abundance of each mass feature. The abundance is calculated by MassHunter software as the sum of the isotopic and adduct peaks that correspond to a single molecular feature. After data deconvolution, mass features showing at least two ions (e.g. (M^+H)^+ and (M^+H)^++1 or (M^+H)^+ and (M^+Na)^+) and an abundance value greater than 50000 for positive-ion mode data and 10000 in negative-ion mode data were included in the data set used for binning of the mass features.
Following feature selection by MassHunter, the data was further preprocessed by MassProfiler (Agilent) software which aligns mass features across multiple LC-MS data files. Mass features were generated for data from each drug treatment experiment (dosed and control) using the default alignment settings in MassProfiler with the requirement that a feature be present in at least 80% of the samples in one treatment. The mass feature datasets for each drug treatment experiment were further processed in a global manner using custom analysis scripts executed in the R statistical software environment. […]

[2] = high dose (H = 10x circulating dose)
[3] = low dose (L = 0.1x circulating dose)

Compound: Nc1nc2ncc(CNc3ccc(C(=O)N[C@@H](CCC(=O)O)C(=O)O)cc3)nc2c(=O)[nH]1 [Folic Acid]
Arg fold change/ADMA fold change (hESCs): 1.08 | % Non (PLS-DA class probability non-teratogen) [1, 2]: 0.59 | % Ter (PLS-DA class probability teratogen) [1, 2]: 0.41 | Confidence (difference between class probabilities) [1, 2]: 0.18 | Prediction [1, 2]: Non | % Non (PLS-DA class probability non-teratogen) [1, 3]: 0.59 | % Ter (PLS-DA class probability teratogen) [1, 3]: 0.41 | Confidence (difference between class probabilities) [1, 3]: 0.18 | Prediction [1, 3]: Non

Compound: CCCC(CCC)C(=O)O [VPA]
% Non (PLS-DA class probability non-teratogen) [1, 2]: 0.34 | % Ter (PLS-DA class probability teratogen) [1, 2]: 0.66 | Confidence (difference between class probabilities) [1, 2]: 0.32 | Prediction [1, 2]: Ter | % Non (PLS-DA class probability non-teratogen) [1, 3]: 0.43 | % Ter (PLS-DA class probability teratogen) [1, 3]: 0.57 | Confidence (difference between class probabilities) [1, 3]: 0.14 | Prediction [1, 3]: Ter

Arg/ADMA Prediction (hESCs): Ter
Compound: CCCCc1oc2ccccc2c1C(=O)c1cc(I)c(OCCN(CC)CC)c(I)c1 [Amiodarone]
Arg fold change/ADMA fold change (hESCs): 1.64 | Predicted teratogenicity (random forest statistical model) (WA09 hESCs): Ter

Compound: CC1(C)S[C@@H]2[C@H](NC(=O)Cc3ccccc3)C(=O)N2[C@H]1C(=O)O [PenicillinG]
% Non (PLS-DA class probability non-teratogen) [1, 2]: 0.57 | % Ter (PLS-DA class probability teratogen) [1, 2]: 0.43 | Confidence (difference between class probabilities) [1, 2]: 0.14 | Prediction [1, 2]: Non | % Non (PLS-DA class probability non-teratogen) [1, 3]: 0.55 | % Ter (PLS-DA class probability teratogen) [1, 3]: 0.45 | Confidence (difference between class probabilities) [1, 3]: 0.1 | Prediction [1, 3]: Non

Compound: O=C1NS(=O)(=O)c2ccccc21 [Saccharin]
% Non (PLS-DA class probability non-teratogen) [1, 2]: 0.8 | % Ter (PLS-DA class probability teratogen) [1, 2]: 0.2 | Confidence (difference between class probabilities) [1, 2]: 0.6 | Prediction [1, 2]: Non | % Non (PLS-DA class probability non-teratogen) [1, 3]: 0.75 | % Ter (PLS-DA class probability teratogen) [1, 3]: 0.25 | Confidence (difference between class probabilities) [1, 3]: 0.5 | Prediction [1, 3]: Non

Compound: CC(=O)Oc1ccccc1C(=O)O [Aspirin]
Arg fold change/ADMA fold change (hESCs): 1.07

Arg/ADMA Prediction (hESCs): Ter
Compound: CC1=C(/C=C/C(C)=C/C=C/C(C)=C\C(=O)O)C(C)(C)CCC1 [Accutane]
Arg fold change/ADMA fold change (hESCs): 0.55 | % Non (PLS-DA class probability non-teratogen) [1, 2]: 0.3 | % Ter (PLS-DA class probability teratogen) [1, 2]: 0.7 | Confidence (difference between class probabilities) [1, 2]: 0.4 | Prediction [1, 2]: Ter | % Non (PLS-DA class probability non-teratogen) [1, 3]: 0.33 | % Ter (PLS-DA class probability teratogen) [1, 3]: 0.67 | Confidence (difference between class probabilities) [1, 3]: 0.34 | Prediction [1, 3]: Ter | Classification by the refined random forest model (FIG. 3) (WA09 hESCs; 18-feature model, 26 drug treatment experiments): misclassified as non-teratogens | Predicted teratogenicity (random forest statistical model) (WA09 hESCs): Non

Compound: N[C@@H](Cc1cc(I)c(Oc2cc(I)c(O)c(I)c2)c(I)c1)C(=O)O [Levothyroxine]
Arg fold change/ADMA fold change (hESCs): 1.03 | Arg/ADMA Prediction (hESCs; from fold change ratio): Non (Smaller fold change ratios (between 0.9 and 1.1) show a good correlation with non-teratogens) | % Non (PLS-DA class probability non-teratogen) [1, 2]: 0.59 | % Ter (PLS-DA class probability teratogen) [1, 2]: 0.41 | Confidence (difference between class probabilities) [1, 2]: 0.18 | Prediction [1, 2]: Non | % Non (PLS-DA class probability non-teratogen) [1, 3]: 0.69 | % Ter (PLS-DA class probability teratogen) [1, 3]: 0.31 | Confidence (difference between class probabilities) [1, 3]: 0.38 | Prediction [1, 3]: Non

Compound: CN(C)CCOC(c1ccccc1)c1ccccc1 [Diphenhydramine]
% Non (PLS-DA class probability non-teratogen) [1, 2]: 0.73 | % Ter (PLS-DA class probability teratogen) [1, 2]: 0.27 | Confidence (difference between class probabilities) [1, 2]: 0.46 | Prediction [1, 2]: Non | % Non (PLS-DA class probability non-teratogen) [1, 3]: 0.76 | % Ter (PLS-DA class probability teratogen) [1, 3]: 0.24 | Confidence (difference between class probabilities) [1, 3]: 0.52 | Prediction [1, 3]: Non

Compound: CC1(C)S[C@@H]2[C@H](NC(=O)Cc3ccccc3)C(=O)N2[C@H]1C(=O)O [Penicillin G]
Arg fold change/ADMA fold change (hESCs): 0.96 | Arg/ADMA Prediction (hESCs; from fold change ratio): Non (Smaller fold change ratios (between 0.9 and 1.1) show a good correlation with non-teratogens)

Compound: CC1=C(/C=C/C(C)=C/C=C/C(C)=C/C(=O)O)C(C)(C)CCC1 [RetinoicAcid]
% Non (PLS-DA class probability non-teratogen) [1, 2]: 0.3 | % Ter (PLS-DA class probability teratogen) [1, 2]: 0.7 | Confidence (difference between class probabilities) [1, 2]: 0.4 | Prediction [1, 2]: Ter | % Non (PLS-DA class probability non-teratogen) [1, 3]: 0.3 | % Ter (PLS-DA class probability teratogen) [1, 3]: 0.7 | Confidence (difference between class probabilities) [1, 3]: 0.4 | Prediction [1, 3]: Ter

Compound: Cn1c(=O)c2c(ncn2C)n(C)c1=O [Caffeine]
% Non (PLS-DA class probability non-teratogen) [1, 2]: 0.53 | % Ter (PLS-DA class probability teratogen) [1, 2]: 0.47 | Confidence (difference between class probabilities) [1, 2]: 0.06 | % Non (PLS-DA class probability non-teratogen) [1, 3]: 0.58 | % Ter (PLS-DA class probability teratogen) [1, 3]: 0.42 | Confidence (difference between class probabilities) [1, 3]: 0.16

Compound: NNC(=O)c1ccncc1 [Isoniazid]
Arg fold change/ADMA fold change (hESCs): 0.94 | % Non (PLS-DA class probability non-teratogen) [1, 2]: 0.59 | % Ter (PLS-DA class probability teratogen) [1, 2]: 0.41 | Confidence (difference between class probabilities) [1, 2]: 0.18 | Prediction [1, 2]: Non | % Non (PLS-DA class probability non-teratogen) [1, 3]: 0.76 | % Ter (PLS-DA class probability teratogen) [1, 3]: 0.24 | Confidence (difference between class probabilities) [1, 3]: 0.52 | Prediction [1, 3]: Non

Arg/ADMA Prediction (hESCs): Ter
Compound: O=C1O[C@H]([C@@H](O)CO)C(O)=C1O [Ascorbic Acid]
Outcome of the Arg/ADMA metrics for teratogenicity (hESCs): false positives for teratogenicity | Arg fold change/ADMA fold change (hESCs): 1.28 | % Non (PLS-DA class probability non-teratogen) [1, 2]: 0.57 | % Ter (PLS-DA class probability teratogen) [1, 2]: 0.43 | Confidence (difference between class probabilities) [1, 2]: 0.14 | Prediction [1, 2]: Non | % Non (PLS-DA class probability non-teratogen) [1, 3]: 0.57 | % Ter (PLS-DA class probability teratogen) [1, 3]: 0.43 | Confidence (difference between class probabilities) [1, 3]: 0.14 | Prediction [1, 3]: Non

Arg/ADMA Prediction (hESCs): Ter
Compound: CC1=C(/C=C/C(C)=C/C=C/C(C)=C/C(=O)O)C(C)(C)CCC1 [Retinoic Acid]
Arg fold change/ADMA fold change (hESCs): 0.48
